Data: US10533018B2, “Antimicrobial prochelators to target drug-resistant bacteria and methods of making and using the same” (Duke University, priority 2015, dated 2020)

Columns and labels:
[1] = tested on: susceptible E. coli HB101 K-12 (no β-lactamase); test: Broth microdilution (preliminary, Table 1), susceptible K-12; format: cell-based, Escherichia coli; details: for IC50: Escherichia coli, Susceptable K-12 E. coli, LB, OD600, preliminary results
Description: In order to determine the antibiotic activity of DB4-51, a debilitated strain of Escherichia coli (HB101 K-12) was transformed with the pGLO plasmid from Bio-Rad in order to express β-lactamase. This transformation was confirmed by growing on a selective medium containing 100 μg/ml ampicillin in Lennox LB with 1.5% agar. A broth microdilution assay was employed to determine the relative activity of DB4-51 against susceptible (HB 101 K-12, no β-lactamase) and resistant (HB 101 K-12 transformed to express β-lactamase) E. coli. Using Lennox LB as the medium. serial dilutions of the test compounds were performed in a 96-well plate and then inoculated with E. coli before incubating for 16-20 hours at 35° C. The bacterial growth was monitored by recording each well's absorbance at 600 nm (OD600.) The OD600 values of E. coli suspensions incubated with various compounds were compared in order to assess their activities.
FIG. 7: OD600 of susceptible and resistant K-12 E. coli cultures against DB4-51 and known antibiotics as a function of concentration. Ampicillin has a penicillin core and cephalexin has a cephalosporin core. Cultures were grown in LB broth at 37° C. while shaking at 200 rpm for 18 hours and then diluted to an OD600 of 0.005 before adding the compounds. Plates were grown at 35° C. while shaking at 200 rpm and the OD600 was recorded after 18 hours.
Table 1: Calculated IC50 values for DB4-51, cephalexin, ampicillin, and pyrithione. These values were derived by fitting the data to a log dose-response curve and reporting the concentration corresponding to half the maximum OD600 value for each compound.

[2] = tested on: Klebsiella pneumonia (Klebs); test: Broth microdilution growth inhibition (OD600); format: cell-based
Excerpt: (§1) Bacterial culture reagents including LB broth (Lennox), agar-agar, ampicillin, and ceftriaxone were purchased from Sigma Aldrich Corp. The Escherichia coli (E. coli) K12 strain HB101 and pGLO E. coli transformation kit purchased from Bio-Rad Laboratories Inc. HB101 was transformed with the bla gene via the pGLO plasmid. The bla gene encodes for a TEM-1 β-lactamase that imparts penicillin resistance to the mutant E. coli K-12 strain (+Bla). Strains E. coli UTI89, [27] pCOM-GFP-transformed E. coli UTI89 (pCOM-GFP), [28] and Methicillin-Resistant Staphylococcus aureus (MRSA) clone USA300 [29] have been previously described. The Extended-Spectrum β-Lactamase (ESBL) E. coli, Klebsiella pneumonia (Klebs), and Pseudomonas aeruginosa (Pseudo) strains were clinical isolates acquired deidentified from Duke Hospital and tested for antibiotic susceptibility in the Clinical Microbiology Laboratory using standard clinical susceptibility methods.
(§2) Cultures were incubated on LB (Lennox, Sigma) agar at 37° C. in ambient atmospheric composition. Before beginning an experiment, a single bacterial colony grown on LB agar was resuspended in 2 mL LB broth and incubated overnight to form a turbid cell suspension. The overnight culture was diluted 1:100 in LB and used immediately as the working culture. To assess the antibacterial activity of compounds, the working bacterial culture was aliquoted in a clear, flat-bottomed, 96-well polystyrene plate (Costar) and the compound of interest was added in 2-fold serial dilution from 500 to 1 μM. Plates were covered with a breathable sealing film (Aeroseal, Genesee Scientific) and incubated at 37° C. in ambient atmospheric composition with shaking at 200 rpm. Optical density at 600 nm was recorded after 4 h and 20 h for each well using a standard OD600 protocol with LB serving as the blank. The resulting dose-response curves were fit to a nonlinear regression in GraphPad Prism Version 6 to calculate the IC50 of DB4-51 in each strain.
The ability of DB4-162 to inhibit bacterial growth was assessed by a traditional broth microdilution method that assesses the turbidity of liquid cultures in the presence of varying concentrations of the compound. As described above for DB4-51, the antibacterial properties of the prochelator DB4-162 were assessed in non-pathogenic lab-strain HB101K-12 E. coli and compared to the pGLO-transfected mutant HB101K-12 E. coli that express β-lactamase. Clinically relevant pathogenic bacteria were also screened, including UTI89 E. coli, pCOM transfected UTI89 E. coli (pCOM), extended spectrum β-lactamase (ESBL) E. coli, methicillin-resistant Staphylococcus aureus (MRSA), and Klebsiella pneumonia (Klebs). In addition to being naturally resistant to many β-lactam antibiotics, MRSA can produce a number of β-lactamases. […] It should be noted that all of the bacteria tested are gram-negative except for gram-positive MRSA.
The goal of this screen was to calculate the IC50 of the prochelator in a series of pathogenic bacteria and compare these values to the IC50 of known antibiotics in those same strains to determine the relative effectiveness of DB4-162 against the drug-resistant and drug-susceptible bacteria in comparison to current antibiotic treatment options. Bacterial growth was monitored in LB broth at 37° C. in the presence and absence of DB4-162 for 20 hours. A concentration gradient of DB4-162 from 500 to 0 μM was used to screen all 7 strains of bacteria and the dose-response curves were fit to a […] to calculate the IC50 of DB4-162 in each strain. These IC50 values are an approximation of how effectively DB4-162 inhibits the growth of each bacterial strain in vitro.
IC50 values for ampicillin were calculated via broth microdilution in LB broth only. Values are listed as the mean followed by the 95% confidence interval about the mean. Mean and confidence intervals were calculated from a variable slope, nonlinear regression fit to the dose-response OD600 data. […]

[3] = tested on: clinical isolates of Klebsiella pneumonia (Klebs); test: Broth microdilution in Klebs clinical isolates; format: cell-based; details: Klebsiella pneumoniae, LB broth
Excerpt: as §1, §2

[4] = Klebsiella pneumoniae, LB + 10 μM CuCl2
[5] = Klebsiella pneumoniae, LB + 500 μM BCS
[6] = Klebsiella pneumoniae, LB broth

| Compound | IC50 [1] [µM] | activity against susceptible strain (FIG. 7) ([1]; susceptible strain of E. coli) | IC50 ([2]; LB broth) [nM] | IC50 ([3]; Klebs Isolate 1) [µM] | IC50 ([3]; Klebs Isolate 2) [µM] | IC50 ([3]; Klebs Isolate 3) [µM] | IC50 ([3]; Klebs Isolate 4) [µM] | IC50 ([3]; Klebs Isolate 5) [µM] | IC50 ([3]; Klebs Isolate 6) [µM] | IC50 ([3]; Klebs Isolate 7) [µM] | IC50 ([3]; Klebs Isolate 8) [µM] | IC50 ([3]; Klebs Isolate 9) [µM] | IC50 ([3]; Klebs Isolate 10) [µM] | IC50 ([3]; Klebs Isolate 11) [µM] | IC50 ([3]; Klebs Isolate 12) [µM] | IC50 ([3]; Klebs Isolate 13) [µM] | IC50 [2, 4] [nM] | IC50 [2, 5] [nM] | IC50 [2, 6] [nM] |
| --- | --- | --- | --- | --- | --- | --- | --- | --- | --- | --- | --- | --- | --- | --- | --- | --- | --- | --- | --- |
| CC1(C)S[C@@H]2[C@H](NC(=O)[C@H](N)c3ccccc3)C(=O)N2[C@H]1C(=O)O [Ampicillin] | < 18 | very active | > 250000 | 142 | > 500 | 55 | > 500 | 175 | 118 | > 500 | > 500 | > 500 | > 500 | 251 | 112 | > 500 | – | – | – |
| O=C(Cc1ccccc1)N[C@@H]1C(=O)N2C(C(=O)O)=C(CSc3cccc[n+]3[O-])CS[C@H]12 [DB4-51, 2-((((6R,7R)-2-carboxy-8-oxo-7-(2-phenylacetamido)-5-thia-1-azabicyclo[4.2.0]oct-2-en-3-yl)methyl)thio)pyridine 1-oxide] | 80 | – | – | 25 | 45 | 163 | 133 | 49 | 47 | 9 | 30 | 10 | 150 | 34 | 52 | > 500 | 25 | 20 | – |
| Cc1csc(=S)n1OCC1=C(C(=O)O)N2C(=O)[C@@H](NC(=O)Cc3ccccc3)[C@H]2SC1 [DB4-162, (6R,7R)-3-(((4-methyl-2-thioxothiazol-3(2H)-yl)oxy)methyl)-8-oxo-7-(2-phenylacetamido)-5-thia-1-azabicyclo[4.2.0]oct-2-ene-2-carboxylic acid] | – | – | – | – | – | – | – | – | – | – | – | – | – | – | – | – | 22000 | 24000 | 28000 |
| [O-][n+]1ccccc1S [PT, 2-mercaptopyridine N-oxide] | < 18 | – | – | 10 | 5 | 21 | 9 | 11 | 6 | 10 | 10 | 9 | 5 | 6.5 | 8 | 11 | 9 | 19 | 11 |
